Test [1] addresses T1, Short transient receptor potential channel 5 (Homo sapiens) (UniProt Q9UL62).
T1 sequence (whole entry): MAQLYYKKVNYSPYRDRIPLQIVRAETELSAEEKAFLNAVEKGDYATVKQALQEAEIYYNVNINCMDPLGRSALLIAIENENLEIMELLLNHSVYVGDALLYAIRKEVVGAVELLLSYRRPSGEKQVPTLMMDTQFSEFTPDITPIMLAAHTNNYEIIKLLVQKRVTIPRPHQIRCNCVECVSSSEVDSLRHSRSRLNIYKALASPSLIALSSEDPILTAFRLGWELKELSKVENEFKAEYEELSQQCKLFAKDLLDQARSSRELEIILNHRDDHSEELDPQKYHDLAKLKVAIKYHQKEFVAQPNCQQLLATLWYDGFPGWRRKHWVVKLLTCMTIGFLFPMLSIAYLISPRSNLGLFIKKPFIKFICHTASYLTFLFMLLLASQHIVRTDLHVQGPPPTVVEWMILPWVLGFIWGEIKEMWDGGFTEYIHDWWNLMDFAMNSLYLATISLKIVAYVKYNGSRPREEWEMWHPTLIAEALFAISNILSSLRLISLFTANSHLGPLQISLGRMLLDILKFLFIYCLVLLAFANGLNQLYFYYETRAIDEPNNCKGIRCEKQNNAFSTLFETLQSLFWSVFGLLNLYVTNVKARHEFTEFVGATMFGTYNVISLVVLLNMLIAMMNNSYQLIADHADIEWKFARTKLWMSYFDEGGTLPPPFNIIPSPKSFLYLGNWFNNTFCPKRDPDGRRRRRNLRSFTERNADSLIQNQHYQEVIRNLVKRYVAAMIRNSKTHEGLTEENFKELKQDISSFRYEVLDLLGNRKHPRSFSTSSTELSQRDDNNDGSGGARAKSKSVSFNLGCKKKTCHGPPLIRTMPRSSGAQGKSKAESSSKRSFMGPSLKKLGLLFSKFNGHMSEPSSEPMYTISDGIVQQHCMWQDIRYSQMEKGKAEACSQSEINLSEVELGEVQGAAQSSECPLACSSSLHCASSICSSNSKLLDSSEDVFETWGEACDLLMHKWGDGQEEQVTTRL
Kind of test: Induction of S-nitrosylation of TRPC5 in HEK cells assessed as inhibition of incorporation of DTNB-2Bio at 5 mM. It is filed as cell-based. As to conditions: HEK293.

Test [2] relates to HEK293. Kind of test: Induction of rat TRPV1 Cys616 mutant S-nitrosylation expressed in HEK cells assessed as increase in Ca2+ level from extracellular space at 0.1 to 1 mM. It is filed as cell-based.
In test [3] the target is T2, Transient receptor potential cation channel subfamily V member 3 (Homo sapiens) (UniProt Q8NET8).
T2 sequence (whole entry): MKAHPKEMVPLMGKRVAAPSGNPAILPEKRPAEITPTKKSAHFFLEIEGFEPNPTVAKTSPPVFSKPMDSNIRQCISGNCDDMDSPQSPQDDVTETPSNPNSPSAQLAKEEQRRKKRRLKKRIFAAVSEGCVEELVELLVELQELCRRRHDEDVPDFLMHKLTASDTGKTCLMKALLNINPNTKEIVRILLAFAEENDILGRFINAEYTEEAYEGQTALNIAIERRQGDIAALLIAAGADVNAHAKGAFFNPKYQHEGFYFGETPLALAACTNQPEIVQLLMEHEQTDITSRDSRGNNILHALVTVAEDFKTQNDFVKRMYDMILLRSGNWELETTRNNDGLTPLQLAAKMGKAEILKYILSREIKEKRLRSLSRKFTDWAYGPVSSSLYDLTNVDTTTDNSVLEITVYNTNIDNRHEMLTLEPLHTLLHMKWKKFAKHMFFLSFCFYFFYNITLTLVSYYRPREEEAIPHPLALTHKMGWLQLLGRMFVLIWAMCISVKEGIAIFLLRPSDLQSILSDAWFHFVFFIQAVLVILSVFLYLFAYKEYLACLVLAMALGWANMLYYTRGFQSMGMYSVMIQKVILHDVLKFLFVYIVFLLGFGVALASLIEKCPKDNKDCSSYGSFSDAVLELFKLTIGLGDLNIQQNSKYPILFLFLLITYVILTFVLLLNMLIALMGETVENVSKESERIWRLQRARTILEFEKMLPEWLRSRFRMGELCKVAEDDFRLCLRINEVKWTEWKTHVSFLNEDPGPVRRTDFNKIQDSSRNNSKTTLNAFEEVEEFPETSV
Kind of test: Activation of TRPV3 in HEK cells assessed as increase in Ca2+ level from extracellular space at 300 uM. It is filed as cell-based. To be noted: HEK293.

Test [4] deals with HEK293. The experiment in a line: Activation of rat TRPV1 Cys616 mutant expressed in HEK cells assessed as increase in Ca2+ level from extracellular space at 10 uM. It is filed as cell-based.
In test [5] the target is T1, Short transient receptor potential channel 5 (Homo sapiens). The experiment in a line: Induction of S-nitrosylation of TRPC5 in HEK cells assessed as increase in Ca2+ level from extracellular space at 30 uM in presence of dithiothreitol. It is filed as cell-based. As to conditions: HEK293.
Test [6] has the same target. The experiment in a line: Induction of S-nitrosylation of TRPC5 in HEK cells assessed as increase in Ca2+ level from extracellular space at 30 uM. It is filed as cell-based. To be noted: HEK293.
In test [7] the target is T2, Transient receptor potential cation channel subfamily V member 3 (Homo sapiens). The experiment in a line: Activation of TRPV3 in HEK cells assessed as increase in Ca2+ level from extracellular space at 10 uM. It is filed as cell-based. As to conditions: HEK293.
The test system of test [8] is HEK293. The experiment in a line: Activation of rat TRPV1 Cys621 mutant expressed in HEK cells assessed as increase in Ca2+ level from extracellular space at 10 uM. It is filed as cell-based.
Test [9] addresses T1, Short transient receptor potential channel 5 (Homo sapiens). The experiment in a line: Activation of TRPC5 expressed in BAEC expressing dominant negative mutant of TRPC5 assessed as increase in Ca2+ level from extracellular space at 100 uM.

Calls of active or inactive are those of the source. No cut-off for these calls is given here.

In the case of `CC(=O)N[C@@H](C(=O)O)C(C)(C)SN=O` (racemic), the result in [1] and in [3] was Active. Further, the outcome in [2] was inactive.
Regarding `O=[N+]([O-])c1ccc(SSc2ccc([N+](=O)[O-])cn2)nc1`, the outcome in test [4], in test [5], in [8] and in test [9] was inactive. The outcome in test [6] and in [7] was Active.

For the origin of these results see ChEMBL document CHEMBL1250444, “Nitric oxide activates TRP channels by cysteine S-nitrosylation” (Nat Chem Biol, 2006).
